pIC50: −log10 of the molar value.
Columns and labels:
COLO 205 xenograft = test: COLO 205 colorectal carcinoma xenograft model; type: in vivo, mouse
Protocol: COLO 205 (CCL-222) colorectal cancer cells were obtained from ATCC. These cells were grown in RPMI-1640 medium supplemented with 10% fetal bovine serum, 1% penicillin and streptomycin. Cells were sub-cultured by transferring floating cells to a new flask and trypsinizing adherent cells before sub-culturing at a ratio of 1:4. COLO 205 cells were harvested by centrifugation and counted using a hemocytometer. Cells were resuspended in PBS at a concentration of 5×10^7 cells per mL. Cells were placed on ice, and then mixed with an equal volume of Matrigel™ (BD Biosciences CB-40234). This mixture was kept on ice and injected into the left flank of mice in a volume of 0.2 mL, equivalent to 5×10^6 cells per mouse. Thirty-two (32) SCID mice were inoculated subcutaneously in the left flank with 5×10^6 COLO 205 cells. Treatment was initiated when the tumors reached a mean volume of 103.7 mm^3 (standard deviation±30 mm^3, range 17-183 mm^3). Mice were allocated to four (4) groups of eight (8) mice such that mean tumor volume in each group was within the range of 95 to 104 mm^3. […] With the exception of 5-FU (which was given IP on days 1 and 3), all compounds were given by oral gavage. […] Animal weights and conditions were recorded daily, and tumors were measured on Mondays, Wednesdays and Fridays.

ANBL-6 = test: MTT assay panel; type: cell-based; conditions: Homo sapiens; ANBL-6 cells, 72 hours
Protocol: (§1) Compound 124 was further tested against a panel of selected solid and hematological cancer cell lines and selected normal cell lines in an MTT assay. Briefly, the various cell lines above were plated at different densities on day 1. […] Cell Titer AQueous One was added to each well, and the plates were read in a plate reader at OD 495.

AU-565 = test: MTT assay panel; type: cell-based; conditions: Homo sapiens, AU565; AU-565 cells, 72 hours
Protocol: as §1

CAPAN-1 = test: MTT assay panel; type: cell-based; conditions: Homo sapiens; CAPAN-1 cells, 72 hours
Protocol: as §1

Colo-205 = test: MTT assay panel; type: cell-based; conditions: Homo sapiens; Colo-205 cells, 72 hours
Protocol: as §1

DLD-1 = test: MTT assay panel; type: cell-based; conditions: Homo sapiens; DLD-1 cells, 72 hours
Protocol: as §1

HCC-2935 = test: MTT assay panel; type: cell-based; conditions: Homo sapiens, HCC2935; HCC-2935 cells, 72 hours
Protocol: as §1

HCC-4006 = test: MTT assay panel; type: cell-based; conditions: Homo sapiens, HCC4006; HCC-4006 cells, 72 hours
Protocol: as §1

HPAC = test: MTT assay panel; type: cell-based; conditions: Homo sapiens; HPAC cells, 72 hours
Protocol: as §1

LS-180 = test: MTT assay panel; type: cell-based; conditions: Homo sapiens, LS180; LS-180 cells, 72 hours
Protocol: as §1

MSTO-211H = test: MTT assay panel; type: cell-based; conditions: Homo sapiens; MSTO-211H cells, 72 hours
Protocol: as §1

NCI-H1563 = test: MTT assay panel; type: cell-based; conditions: Homo sapiens; NCI-H1563 cells, 72 hours
Protocol: as §1

NCI-H2122 = test: MTT assay panel; type: cell-based; conditions: Homo sapiens; NCI-H2122 cells, 72 hours
Protocol: as §1

NCI-H358 = test: MTT assay panel; type: cell-based; conditions: Homo sapiens; NCI-H358 cells, 72 hours
Protocol: as §1

NCI-H520 = test: MTT assay panel; type: cell-based; conditions: Homo sapiens; NCI-H520 cells, 72 hours
Protocol: as §1

NCI-H69 = test: MTT assay panel; type: cell-based; conditions: Homo sapiens; NCI-H69 cells, 72 hours
Protocol: as §1

OCIAML5 = test: MTT assay panel; type: cell-based; conditions: Homo sapiens, OCI-AML-5; OCIAML5 cells, 72 hours
Protocol: as §1

PATU-8902 = test: MTT assay panel; type: cell-based; conditions: PATU-8902 cells, 72 hours
Protocol: as §1

RL = test: MTT assay panel; type: cell-based; conditions: Homo sapiens; RL cells, 72 hours
Protocol: as §1

SW-1116 = test: MTT assay panel; type: cell-based; conditions: Homo sapiens; SW-1116 cells, 72 hours
Protocol: as §1

SW-48 = test: MTT assay panel; type: cell-based; conditions: Homo sapiens, SW48; SW-48 cells, 72 hours
Protocol: as §1

SW-837 = test: MTT assay panel; type: cell-based; conditions: Homo sapiens, SW837; SW-837 cells, 72 hours
Protocol: as §1

SW-948 = test: MTT assay panel; type: cell-based; conditions: Homo sapiens, SW948; SW-948 cells, 72 hours
Protocol: as §1

Tera-1 = test: MTT assay panel; type: cell-based; conditions: Tera-1 cells, 72 hours
Protocol: as §1

Toledo = test: MTT assay panel; type: cell-based; conditions: Homo sapiens; Toledo cells, 72 hours
Protocol: as §1

pIC50 (Colo-205): 6.92 | pIC50 (DLD-1): 6.10 | pIC50 (HCC-4006): 7.70 | pIC50 (NCI-H1563): 5.11 | pIC50 (NCI-H2122): 6.08 | pIC50 (NCI-H358): 6.38 | pIC50 (NCI-H520): 5.89 | pIC50 (NCI-H69): 5.79 | pIC50 (SW-1116): 6.39 | pIC50 (SW-48): 6.92 | pIC50 (SW-837): 6.30 | pIC50 (SW-948): < 5.00
SMILES: NC(=O)/C(=C/n1cnc(-c2cc(C(F)(F)F)cc(C(F)(F)F)c2)n1)c1cncnc1 [Compound 124, (E)-3-(3-(3,5-bis(trifluoromethyl)phenyl)-1H-1,2,4-triazol-1-yl)-2-(pyrimidin-5-yl)acrylamide]
mean tumor volume (COLO 205 xenograft; 5 or 15 mg/kg PO daily, SCID mice, compared to vehicle): mean tumor volume was reduced | mean tumor volume compared with standard of care (COLO 205 xenograft; particularly 15 mg/kg PO daily, versus 5-FU): compared favorably | pIC50 (ANBL-6): 6.66 | pIC50 (AU-565): 6.31 | pIC50 (CAPAN-1): 7.70 | pIC50 (HCC-2935): 5.17 | pIC50 (HPAC): 5.00 | pIC50 (LS-180): < 5.00 | pIC50 (MSTO-211H): 7.15 | pIC50 (OCIAML5): 7.40 | pIC50 (PATU-8902): 6.39 | pIC50 (RL): 7.70 | pIC50 (Tera-1): 6.82 | pIC50 (Toledo): 7.15

— patent publication US11945794B2, “Nuclear transport modulators and uses thereof” (Karyopharm Therapeutics Inc., priority 2013, dated 2024)
